Measured values taken from US20070104649A1, “Optically fluorescent nanoparticles” (priority 2005, published 2007).

Assay: UV-Vis absorption spectra of co-aggregate (J-aggregate) formation
Type: physicochemical
Conditions: non-aggregated dye
Experimental: An aqueous solution of 0.1% (w/v) PEI (1.8, 10, 70, or 750 kDa) is gently stirred, and an aqueous solution of 0.02% (w/v) TITCC is instantly added. This composition is further agitated at about 4° C. for about 30-45 minutes under UV protection. The aggregation progress is monitored by UV-Vis spectra starting from 900 nm down to 600 nm.
This is confirmed by the absence of the starting wavelength of 756 nm of the pure dye, and by the new wavelength maximum at approximately 800 nm from the J-aggregates. In case of 100 and 125% surplus of PEI, the two wavelength maxima indicate that the dye is only partially bound as J-aggregate. Therefore, the wavelength of the pure dye and the wavelength maximum of the J-aggregates can be detected side by side. All measured samples contained the same concentration of dye. The absorption is reduced due to the quenching effects in the J-aggregates. UV-Vis spectra were recorded by UV-2401-PC spectrophotometer (Shimadzu Corp.).
This may be due to a more compact dye-polymer-complex if fewer cationic charges for stabilisation are available. Vice versa, the complexes are less compact having a greater amount of polymer which results in a smaller shift to approximately 795 nm.

CC(C=CC=C1N(CCS(=O)(=O)[O-])c2ccc(S(=O)(=O)[O-])cc2C1(C)C)=CC=CC1=[N+](CCS(=O)(=O)[O-])c2ccc(S(=O)(=O)[O-])cc2C1(C)C.[Na+].[Na+].[Na+] [TITCC, trisodium-3,3-dimethyl-2-{4-methyl-7-[3,3-dimethyl-5-sulfonato-1-(2-sulfonatoethyl)-3H-indolium-2-yl]hepta-2,4,6-trien-1-ylidene}-1-(2-sulfonatoethyl)-2,3-dihydro-1H-indole-5-sulfonate, inner salt]
absorption wavelength maximum of the pure dye: 756 nm
